The values that follow come from article PMC6986443, “T‐495, a novel low cooperative M1 receptor positive allosteric modulator, improves memory deficits associated with cholinergic dysfunction and is characterized by low gastrointestinal side effect risk” (Pharmacology Research & Perspectives, 2020).

One data set has as its system patients with AD. Also noted: method as in PMID 29955661. As to conditions: cited from earlier work.
For a further data set, the system named is Phosphodiesterase PDE4. Description: Selectivity panel. The data set is classed as biochemical. From the text: (§1) The selectivity of T‐495 at 10 μmol/L against a panel of 106 targets, including receptors, enzymes, ion channels, and transporters, was characterized (Eurofins Panlabs Taiwan Ltd., Taipei, Taiwan).
Data set [1] has as its target T1, Phosphodiesterase PDE10A2 (Homo sapiens, UniProt Q9Y233).
T1 construct: purchased Eurofins Panlabs Taiwan Ltd
Description: Selectivity panel. The data set is classed as biochemical.
Description: as §1

In data set [2] the target is T2, Monoamine oxidase A (MAO-A) (Homo sapiens, UniProt P21397).
T2 construct: purchased Eurofins Panlabs Taiwan Ltd
Put plainly: Selectivity panel. It counts as biochemical.
Description: as §1

The target in data set [3] is T3, Matrix metalloproteinase-1 (MMP-1) (Homo sapiens, UniProt P03956).
T3 construct: purchased Eurofins Panlabs Taiwan Ltd
Put plainly: Selectivity panel. It counts as biochemical.
Description: as §1

A further data set addresses T4, Lipoxygenase (5-LO) (Homo sapiens, UniProt P09917).
T4 construct: purchased Eurofins Panlabs Taiwan Ltd
Put plainly: Selectivity panel. The data set is classed as biochemical.
Description: as §1

The target of another data set is T5, Carbonic anhydrase II (Homo sapiens, UniProt P00918).
T5 construct: purchased Eurofins Panlabs Taiwan Ltd
Put plainly: Selectivity panel. The data set is classed as biochemical.
Description: as §1

Data set [4] concerns the target T6, Nitric oxide synthase, inducible (iNOS) (Mus musculus, UniProt P29477).
T6 construct: purchased Eurofins Panlabs Taiwan Ltd
Description: Selectivity panel. The data set is classed as biochemical.
Description: as §1

The target in another data set is T7, Peptidase, factor Xa (Homo sapiens, UniProt P00742).
T7 construct: purchased Eurofins Panlabs Taiwan Ltd
Description: Selectivity panel. It counts as biochemical.
Description: as §1

A further data set concerns ATPase, Na+/K+, Heart. Put plainly: Selectivity panel. It counts as biochemical.
Description: as §1

The target of another data set is T8, Phosphodiesterase PDE6 (Bos taurus, UniProt P11541+P23439).
T8 construct: purchased Eurofins Panlabs Taiwan Ltd
Description: Selectivity panel. The data set is classed as biochemical.
Description: as §1

Data set [5] concerns Catechol-O-Methyl Transferase (COMT). Description: Selectivity panel. The data set is classed as biochemical.
Description: as §1

A further data set has as its target T9, Cyclooxygenase-2 (COX-2) (Homo sapiens, UniProt P35354).
T9 construct: purchased Eurofins Panlabs Taiwan Ltd
Put plainly: Selectivity panel. It counts as biochemical.
Description: as §1

The target of data set [6] is T10, Metalloproteinase, Neutral Endopeptidase (Homo sapiens, UniProt P08473).
T10 construct: purchased Eurofins Panlabs Taiwan Ltd
Description: Selectivity panel. It counts as biochemical.
Description: as §1

Data set [7] deals with T11, Monoamine oxidase B (MAO-B) (Homo sapiens, UniProt P27338).
T11 construct: purchased Eurofins Panlabs Taiwan Ltd
Description: Selectivity panel. It counts as biochemical.
Description: as §1

The test system of data set [8] is Protein kinase C (PKC), non-selective. Put plainly: Selectivity panel. It counts as biochemical.
Description: as §1

A further data set addresses T12, Phosphodiesterase PDE4D2 (Homo sapiens, UniProt Q08499).
T12 construct: purchased Eurofins Panlabs Taiwan Ltd
Description: Selectivity panel. The data set is classed as biochemical.
Description: as §1

Data set [9] concerns the target T13, Matrix metalloproteinase-7 (MMP-7) (Homo sapiens, UniProt P09237).
T13 construct: purchased Eurofins Panlabs Taiwan Ltd
Put plainly: Selectivity panel. It counts as biochemical.
Description: as §1

A further data set deals with Steroid 5α-reductase. Put plainly: Selectivity panel. The data set is classed as biochemical.
Description: as §1

Data set [10] concerns ATPase, Ca2+, Skeletal Muscle. Description: Selectivity panel. The data set is classed as biochemical.
Description: as §1

The next data set has as its system Phosphodiesterase PDE3. Put plainly: Selectivity panel. It counts as biochemical.
Description: as §1

The next data set deals with T14, Phosphodiesterase PDE5 (Homo sapiens, UniProt O76074).
T14 construct: purchased Eurofins Panlabs Taiwan Ltd
Description: Selectivity panel. It counts as biochemical.
Description: as §1

The subject of another data set is Protein kinase A (PKA). Put plainly: Selectivity panel. The data set is classed as biochemical.
Description: as §1

A further data set has as its target T15, Xanthine oxidase (Bos taurus, UniProt P80457).
T15 construct: purchased Eurofins Panlabs Taiwan Ltd
Put plainly: Selectivity panel. The data set is classed as biochemical.
Description: as §1

The target in data set [11] is T16, Protein tyrosine kinase, EGF receptor (Homo sapiens, UniProt P00533).
T16 construct: purchased Eurofins Panlabs Taiwan Ltd
Put plainly: Selectivity panel. It counts as biochemical.
Description: as §1

Data set [12] deals with T17, Nitric oxide synthase, neuronal (nNOS) (Rattus norvegicus, UniProt P29476).
T17 construct: purchased Eurofins Panlabs Taiwan Ltd
Put plainly: Selectivity panel. The data set is classed as biochemical.
Description: as §1

Data set [13] addresses T18, Choline esterase, acetyl, ACES (Homo sapiens, UniProt P22303).
T18 construct: purchased Eurofins Panlabs Taiwan Ltd
Put plainly: Selectivity panel. It counts as biochemical.
Description: as §1

The target of a further data set is T19, human M1R (Homo sapiens, UniProt P11229).
T19 sequence (P11229 1-460): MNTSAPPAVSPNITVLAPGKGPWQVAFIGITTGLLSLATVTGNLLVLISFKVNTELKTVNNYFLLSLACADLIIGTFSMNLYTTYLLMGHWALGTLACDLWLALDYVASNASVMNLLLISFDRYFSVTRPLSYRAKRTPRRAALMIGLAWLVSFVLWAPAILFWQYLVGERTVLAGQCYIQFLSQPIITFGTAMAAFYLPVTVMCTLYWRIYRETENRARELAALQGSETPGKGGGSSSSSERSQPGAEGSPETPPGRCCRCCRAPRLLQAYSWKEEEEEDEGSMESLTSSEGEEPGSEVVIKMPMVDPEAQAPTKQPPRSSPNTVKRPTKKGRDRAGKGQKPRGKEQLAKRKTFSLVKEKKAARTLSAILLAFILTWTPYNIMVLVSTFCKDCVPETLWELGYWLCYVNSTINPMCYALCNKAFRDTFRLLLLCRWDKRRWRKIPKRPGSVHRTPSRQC
Description: [3H]‐NMS binding assay. Details: expressed in transfected cells. Here is the method:
Cell membranes from FreeStyle 293 cells transiently expressing human M1R were incubated with T‐495 (0.01‐30 μmol/L) and 0.2 nmol/L [^3H]‐NMS (PerkinElmer) in assay buffer as described above. After 2 hours at room temperature, the binding was terminated by filtration through GF/C filter plates using a cell harvester and washed five times with 300 μl of 50 mmol/L Tris‐HCl. GF/C plates were dried at 42°C and then 25 μl of microscint 0 was added. Radioactivity was measured by Topcount.

Data set [14] concerns CaMKIIα‐tTA/A53T α‐syn dTg mice. Put plainly: Y‐maze task. It counts as in vivo, mouse. As to conditions: 3 mg/kg p.o. How it is done:
The Y‐maze was fabricated from gray plastic and consisted of three arms (40 cm long, 12 cm high, 3 cm wide at the bottom, and 10 cm wide at the top) with an angle of 120°. Visual cues were placed outside each arm, and the apparatus was illuminated at 10 lux. […] An arm entry was defined as all four paws of the mouse being in the arm, and the sequence of arm entries was monitored with a video camera and counted manually. An alternation was defined as successive entries into the three arms on overlapping triplet sets.36 The percentage of alternation was calculated as the ratio of actual to possible alternations (total number of arm entries minus 2) multiplied by 100.

T10 sequence (P08473 whole entry): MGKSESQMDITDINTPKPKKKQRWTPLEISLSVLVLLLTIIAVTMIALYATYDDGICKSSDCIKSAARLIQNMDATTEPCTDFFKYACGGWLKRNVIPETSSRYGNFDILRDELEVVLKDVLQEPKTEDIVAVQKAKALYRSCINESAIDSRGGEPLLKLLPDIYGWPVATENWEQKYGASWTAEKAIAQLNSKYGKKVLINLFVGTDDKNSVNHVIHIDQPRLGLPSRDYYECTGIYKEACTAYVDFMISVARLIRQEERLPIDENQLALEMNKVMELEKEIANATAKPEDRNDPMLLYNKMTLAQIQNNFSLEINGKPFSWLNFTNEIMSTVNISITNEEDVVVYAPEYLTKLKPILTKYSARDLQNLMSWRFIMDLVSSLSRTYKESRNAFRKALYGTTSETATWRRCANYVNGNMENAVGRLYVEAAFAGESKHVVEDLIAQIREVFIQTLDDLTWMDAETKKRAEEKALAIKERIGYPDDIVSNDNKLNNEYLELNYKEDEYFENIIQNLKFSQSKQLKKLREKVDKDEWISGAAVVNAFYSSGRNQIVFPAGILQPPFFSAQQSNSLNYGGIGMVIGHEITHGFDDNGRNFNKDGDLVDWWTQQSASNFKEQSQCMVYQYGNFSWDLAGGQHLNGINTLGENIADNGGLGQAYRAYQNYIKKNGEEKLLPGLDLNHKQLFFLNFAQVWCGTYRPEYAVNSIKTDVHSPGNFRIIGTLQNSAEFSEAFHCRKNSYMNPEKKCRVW
T11 sequence (P27338 whole entry): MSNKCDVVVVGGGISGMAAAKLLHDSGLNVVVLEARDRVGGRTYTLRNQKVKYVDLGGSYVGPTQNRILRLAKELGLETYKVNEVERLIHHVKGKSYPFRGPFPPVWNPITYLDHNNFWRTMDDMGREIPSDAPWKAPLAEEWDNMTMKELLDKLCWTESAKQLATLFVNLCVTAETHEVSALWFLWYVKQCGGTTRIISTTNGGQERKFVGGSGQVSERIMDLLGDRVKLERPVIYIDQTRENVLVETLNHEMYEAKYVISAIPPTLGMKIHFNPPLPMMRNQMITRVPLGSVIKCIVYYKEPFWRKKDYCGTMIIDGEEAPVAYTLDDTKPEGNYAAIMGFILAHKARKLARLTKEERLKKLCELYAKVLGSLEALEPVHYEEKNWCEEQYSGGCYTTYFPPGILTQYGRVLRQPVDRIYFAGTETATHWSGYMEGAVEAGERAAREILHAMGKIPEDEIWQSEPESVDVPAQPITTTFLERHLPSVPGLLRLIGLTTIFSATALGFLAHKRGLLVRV
T1 sequence (Q9Y233 267-1055 limits assumed): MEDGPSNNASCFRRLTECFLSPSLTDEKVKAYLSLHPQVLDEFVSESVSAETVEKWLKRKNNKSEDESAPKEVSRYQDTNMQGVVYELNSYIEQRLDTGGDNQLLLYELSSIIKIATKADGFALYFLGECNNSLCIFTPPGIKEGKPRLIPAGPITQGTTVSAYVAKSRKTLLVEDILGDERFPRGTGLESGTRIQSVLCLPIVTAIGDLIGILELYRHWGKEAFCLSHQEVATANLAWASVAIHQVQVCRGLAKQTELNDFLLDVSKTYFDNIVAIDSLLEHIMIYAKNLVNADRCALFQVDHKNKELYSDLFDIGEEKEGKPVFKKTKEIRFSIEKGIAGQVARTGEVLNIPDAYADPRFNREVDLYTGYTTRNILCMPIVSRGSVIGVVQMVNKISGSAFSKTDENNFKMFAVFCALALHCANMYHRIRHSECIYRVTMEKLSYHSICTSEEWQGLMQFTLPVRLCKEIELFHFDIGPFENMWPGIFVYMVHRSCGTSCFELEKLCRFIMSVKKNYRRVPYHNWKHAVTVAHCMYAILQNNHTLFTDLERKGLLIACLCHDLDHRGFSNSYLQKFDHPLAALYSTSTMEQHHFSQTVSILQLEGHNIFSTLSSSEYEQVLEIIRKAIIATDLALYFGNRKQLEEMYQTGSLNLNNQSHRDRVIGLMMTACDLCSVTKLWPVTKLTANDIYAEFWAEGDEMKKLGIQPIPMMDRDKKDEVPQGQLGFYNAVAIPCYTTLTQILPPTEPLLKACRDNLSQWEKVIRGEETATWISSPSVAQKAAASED
T4 sequence (P09917 whole entry): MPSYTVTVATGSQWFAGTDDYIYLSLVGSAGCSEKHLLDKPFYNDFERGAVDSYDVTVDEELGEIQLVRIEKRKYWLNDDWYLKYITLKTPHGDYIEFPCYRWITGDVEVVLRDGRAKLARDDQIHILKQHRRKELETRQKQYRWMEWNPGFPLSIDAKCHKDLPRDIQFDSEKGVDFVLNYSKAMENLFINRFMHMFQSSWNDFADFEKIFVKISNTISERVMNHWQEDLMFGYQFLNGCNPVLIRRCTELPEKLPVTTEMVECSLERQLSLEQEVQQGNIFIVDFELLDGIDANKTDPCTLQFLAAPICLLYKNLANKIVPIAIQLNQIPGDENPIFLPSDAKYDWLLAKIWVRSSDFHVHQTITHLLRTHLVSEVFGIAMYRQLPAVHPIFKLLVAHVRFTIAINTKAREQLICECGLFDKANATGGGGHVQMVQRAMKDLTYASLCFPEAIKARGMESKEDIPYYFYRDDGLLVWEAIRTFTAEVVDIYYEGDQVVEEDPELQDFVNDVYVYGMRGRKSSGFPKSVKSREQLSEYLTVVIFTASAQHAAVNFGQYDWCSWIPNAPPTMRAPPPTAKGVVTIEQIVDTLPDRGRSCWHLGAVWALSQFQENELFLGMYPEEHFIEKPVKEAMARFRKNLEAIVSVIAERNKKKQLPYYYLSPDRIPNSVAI
T8 sequence (P11541 whole entry): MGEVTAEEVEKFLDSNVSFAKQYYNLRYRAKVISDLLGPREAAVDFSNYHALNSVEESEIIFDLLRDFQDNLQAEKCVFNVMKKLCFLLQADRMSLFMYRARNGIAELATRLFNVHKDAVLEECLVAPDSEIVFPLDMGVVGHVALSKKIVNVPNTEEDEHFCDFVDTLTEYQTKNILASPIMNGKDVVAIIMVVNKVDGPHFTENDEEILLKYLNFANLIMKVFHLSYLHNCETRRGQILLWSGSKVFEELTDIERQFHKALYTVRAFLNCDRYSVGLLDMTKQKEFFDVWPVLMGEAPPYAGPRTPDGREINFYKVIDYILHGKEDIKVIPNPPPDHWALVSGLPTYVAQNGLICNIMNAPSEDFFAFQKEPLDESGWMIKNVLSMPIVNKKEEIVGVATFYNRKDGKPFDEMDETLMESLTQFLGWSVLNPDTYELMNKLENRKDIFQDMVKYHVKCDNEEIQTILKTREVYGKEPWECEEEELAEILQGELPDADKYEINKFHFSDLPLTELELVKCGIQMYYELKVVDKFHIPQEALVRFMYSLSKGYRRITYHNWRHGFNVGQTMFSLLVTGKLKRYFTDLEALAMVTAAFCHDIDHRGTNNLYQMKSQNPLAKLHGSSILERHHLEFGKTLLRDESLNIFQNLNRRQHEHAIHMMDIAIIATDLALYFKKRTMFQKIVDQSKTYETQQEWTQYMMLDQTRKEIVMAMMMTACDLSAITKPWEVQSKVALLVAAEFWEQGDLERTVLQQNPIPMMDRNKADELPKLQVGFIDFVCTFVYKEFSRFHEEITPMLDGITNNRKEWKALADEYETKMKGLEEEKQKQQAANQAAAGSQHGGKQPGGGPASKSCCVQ
T8 sequence (P23439 whole entry): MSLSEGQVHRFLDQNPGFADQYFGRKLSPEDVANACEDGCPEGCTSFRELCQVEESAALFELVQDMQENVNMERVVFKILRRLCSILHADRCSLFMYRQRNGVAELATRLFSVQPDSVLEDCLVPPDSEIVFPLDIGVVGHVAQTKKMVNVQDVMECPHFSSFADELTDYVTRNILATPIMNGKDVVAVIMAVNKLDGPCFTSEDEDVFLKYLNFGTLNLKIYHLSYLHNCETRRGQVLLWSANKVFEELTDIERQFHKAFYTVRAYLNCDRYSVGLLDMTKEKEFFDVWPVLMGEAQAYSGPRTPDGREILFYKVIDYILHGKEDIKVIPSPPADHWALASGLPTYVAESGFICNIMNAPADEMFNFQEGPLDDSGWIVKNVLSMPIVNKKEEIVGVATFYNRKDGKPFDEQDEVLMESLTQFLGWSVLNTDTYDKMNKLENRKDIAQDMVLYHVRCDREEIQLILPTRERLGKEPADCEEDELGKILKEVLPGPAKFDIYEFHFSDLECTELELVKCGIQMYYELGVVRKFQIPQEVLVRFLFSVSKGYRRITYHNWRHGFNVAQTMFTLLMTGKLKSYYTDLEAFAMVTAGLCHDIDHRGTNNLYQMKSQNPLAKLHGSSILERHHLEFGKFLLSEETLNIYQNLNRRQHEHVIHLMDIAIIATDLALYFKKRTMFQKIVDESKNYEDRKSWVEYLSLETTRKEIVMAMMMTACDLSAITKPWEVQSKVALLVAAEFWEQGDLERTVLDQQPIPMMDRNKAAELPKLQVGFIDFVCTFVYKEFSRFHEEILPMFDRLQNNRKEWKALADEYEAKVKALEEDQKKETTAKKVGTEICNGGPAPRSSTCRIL
T18 sequence (P22303 32-614): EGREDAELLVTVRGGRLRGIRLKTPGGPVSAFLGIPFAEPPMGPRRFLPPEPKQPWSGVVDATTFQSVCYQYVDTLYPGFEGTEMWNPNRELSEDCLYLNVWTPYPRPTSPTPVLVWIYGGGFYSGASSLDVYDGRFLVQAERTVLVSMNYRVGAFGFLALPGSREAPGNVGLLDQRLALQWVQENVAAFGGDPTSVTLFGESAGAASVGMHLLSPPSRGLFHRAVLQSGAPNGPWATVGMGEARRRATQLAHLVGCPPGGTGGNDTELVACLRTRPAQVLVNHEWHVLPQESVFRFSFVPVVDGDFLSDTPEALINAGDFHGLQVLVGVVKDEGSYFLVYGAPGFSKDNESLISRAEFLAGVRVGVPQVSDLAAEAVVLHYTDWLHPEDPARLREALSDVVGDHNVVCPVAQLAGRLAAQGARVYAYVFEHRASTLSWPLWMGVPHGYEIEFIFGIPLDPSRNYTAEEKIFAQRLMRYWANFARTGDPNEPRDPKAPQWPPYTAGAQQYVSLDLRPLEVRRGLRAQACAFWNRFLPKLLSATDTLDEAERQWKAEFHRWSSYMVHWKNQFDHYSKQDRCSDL

In the case of `Cc1ccc(Cc2cc3c(=O)n([C@H]4CCCC[C@@H]4O)cnc3c3ccccc23)cn1` [MK‐7622, 3‐((1S,2S)‐2‐hydroxycyclohexyl)‐6‐((6‐methylpyridin‐3‐yl)methyl)benzo[h]quinazolin‐4(3H)‐one, reference compound], in the data set with patients with AD, the “cognition as adjunctive therapy with AChEIs” value is listed as “did not improve cognition”. The “patients affected by diarrhea” value in the data set on patients with AD (estimated effective dose) is 15%.

For the molecule `Cc1c(Cc2ccc(Cl)nc2)cc2c(c1Cl)OCN([C@H]1CCC[C@@H]1O)C2=O` [T‐495, 8‐chloro‐6‐((6‐chloropyridin‐3‐yl)methyl)‐3‐((1S,2S)‐2‐hydroxycyclopentyl)‐7‐methyl‐2,3‐dihydro‐4H‐1,3‐benzoxazin‐4‐one], the “% inhibition at 10 μM” value stood at 22% in the data set with Phosphodiesterase PDE4; 4% in the data set on ATPase, Na+/K+, Heart; 2% in data set [5]; 0% in data set [8]; 2% in the data set with Steroid 5α-reductase; 0% in [10]. In addition, the “% inhibition at 10 μM” value with Phosphodiesterase PDE3 is listed as 2%; in the data set with Protein kinase A (PKA), -4%. Besides, the inhibition at 10 µM was 5% in [1]; 36% in [2]; 5% in [3]; 15% on Lipoxygenase (5-LO); -9% at Carbonic anhydrase II; 0% in [4]. For the same molecule, the inhibition at 10 µM on Peptidase, factor Xa is -2%; against Phosphodiesterase PDE6, 6%; at Cyclooxygenase-2 (COX-2), 31%; in [6] it was 10%; in [7], 6%; against Phosphodiesterase PDE4D2, 2%. Moreover, the inhibition at 10 µM is 3% in data set [9]; 48% at Phosphodiesterase PDE5; 7% against Xanthine oxidase; 9% in data set [11]; 5% in data set [12]; -2% in data set [13]. Also, at human M1R, the “concentration without inhibition of [3H]‐NMS binding relative to that required for procognitive efficacy” value is on record as “up to 100 fold”. Moreover, on human M1R (T‐495 concentrations below 30 μmol/L), the “inhibition of [3H]‐NMS binding to M1R” value is “did not inhibit”. For the same molecule, in data set [14], the “reduced percentage of alternations” value is “significantly reversed”.
